Data as given in the supplement of paper PMC10307832.

Columns and labels:
Assay in all cases: relative viability (nuclei count vs DMSO), 5 days (fraction); higher = more cells survive
[1] = compound: CC1=CC=C(C=C1)C(=O)CN2C3=C(CCCC3)SC2=N [Pifithrin_alpha] + CC(C)C[C@H](NC(=O)[C@H](Cc1ccccc1)NC(=O)c1cnccn1)B(O)O [Bortezomib] (partner 0.002 µM)
Method in brief: (§1)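 Medians of duplicate plates are given as relative viability. That measure is the nuclei count in treated wells divided by the count in vehicle wells. Counts were taken on 4× images of lung cancer cell lines in 1536-well plates, 5 days after pin-tool dosing the day after seeding with one drug alone or a fixed anchor-drug dose plus five library-drug doses (not always all listed) in √10 steps.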

[2] = compound: CC1=CC=C(C=C1)C(=O)CN2C3=C(CCCC3)SC2=N [Pifithrin_alpha] + C[C@@H](Oc1cc(-c2cnn(C3CCNCC3)c2)cnc1N)c1c(Cl)ccc(F)c1Cl [Crizotinib] (partner 1 µM)
Method in brief: as §1

Axitinib + Decitabine = compound: CNC(=O)c1ccccc1Sc1ccc2c(/C=C/c3ccccn3)n[nH]c2c1 [Axitinib] + Nc1ncn([C@H]2C[C@H](O)[C@@H](CO)O2)c(=O)n1 [Decitabine] (partner 2 µM)
Method in brief: as §1

Bemcentinib + Luminespib = compound: Nc1nc(Nc2ccc3c(c2)CC[C@@H](N2CCCC2)CC3)nn1-c1cc2c(nn1)-c1ccccc1CCC2 [Bemcentinib] + CCNC(=O)c1noc(-c2cc(C(C)C)c(O)cc2O)c1-c1ccc(CN2CCOCC2)cc1 [Luminespib] (partner 0.01 µM)
Method in brief: as §1

Cell Line	relative viability ([1]; first compound 1 µM)	relative viability ([1]; first compound 3.162 µM)	relative viability ([1]; first compound 10 µM)	relative viability ([1]; first compound 100 µM)	relative viability ([2]; first compound 1 µM)	relative viability ([2]; first compound 3.162 µM)	relative viability ([2]; first compound 10 µM)	relative viability ([2]; first compound 100 µM)	relative viability (Axitinib + Decitabine; first compound 0.005 µM)	relative viability (Axitinib + Decitabine; first compound 0.01581 µM)	relative viability (Axitinib + Decitabine; first compound 0.05 µM)	relative viability (Axitinib + Decitabine; first compound 0.1581 µM)	relative viability (Axitinib + Decitabine; first compound 0.5 µM)	relative viability (Bemcentinib + Luminespib; first compound 0.04 µM)	relative viability (Bemcentinib + Luminespib; first compound 0.1265 µM)	relative viability (Bemcentinib + Luminespib; first compound 0.4 µM)	relative viability (Bemcentinib + Luminespib; first compound 1.265 µM)	relative viability (Bemcentinib + Luminespib; first compound 4 µM)	relative viability ([1]; first compound 31.62 µM)	relative viability ([2]; first compound 31.62 µM)
COR-L23	1.01	0.928	0.973	0.908	0.583	0.723	0.683	0.644	0.504	0.454	0.419	0.511	0.397	0.628	0.903	0.807	0.827	0.913	–	–
201T	1.05	1.07	1.16	0.913	1.04	0.902	0.862	0.765	0.866	0.803	0.851	0.872	0.878	1.07	1.05	1.14	1.07	1.14	0.794	0.808
NCI-H2347	0.695	–	0.855	0.874	0.647	0.868	0.696	0.643	0.699	0.543	0.585	0.578	0.686	0.631	0.438	0.866	0.5	0.417	0.814	0.55
LCLC-97TM1	–	0.596	0.397	0.487	–	0.45	0.277	0.306	0.193	0.275	0.266	0.247	0.234	0.684	0.793	0.726	0.866	0.986	–	–
NCI-H2126	1.11	1.09	0.925	0.94	1.03	1.05	0.886	0.953	0.617	0.595	0.571	0.583	0.562	0.893	0.973	0.81	0.975	0.939	0.896	0.768
HCC-15	1.1	1.11	0.919	1.1	0.921	1.05	0.755	0.861	0.637	0.635	0.681	0.615	0.603	0.326	0.485	0.293	0.253	0.235	0.772	0.544
NCI-H2405	0.869	0.935	0.925	0.953	0.821	0.815	0.796	0.822	0.767	0.718	0.777	0.707	0.811	0.659	0.716	0.609	0.754	0.656	0.857	0.741
COR-L 105	0.725	0.615	0.856	0.632	0.678	0.644	0.712	0.75	0.727	0.557	0.726	0.727	0.683	0.741	0.839	0.893	0.704	0.783	0.629	0.469
ABC-1	0.322	0.351	0.328	0.298	1.09	0.999	1.22	0.597	1.35	–	0.866	0.964	1.01	0.456	0.682	0.801	1.02	0.741	0.26	0.817
NCI-H2085	0.993	1.07	1.01	1	0.795	0.848	0.7	0.966	0.578	0.54	0.614	0.551	0.561	0.447	0.448	0.435	0.471	0.449	0.878	0.747
BEN	0.47	0.884	0.914	1.04	0.878	1.03	1.05	1.34	0.795	0.758	0.771	0.782	0.635	0.178	0.395	0.563	0.199	0.236	0.728	0.84
LCLC-103H	1.12	1.08	0.902	1.25	1.06	1.04	1.01	1.07	0.738	0.719	0.738	0.801	0.797	1.06	1.15	0.94	1.11	0.899	0.831	0.897
NCI-H520	0.64	0.771	0.567	0.739	1.19	0.805	0.731	0.833	0.527	0.422	0.509	0.449	0.481	0.248	0.191	0.252	0.23	0.303	0.386	0.509
NCI-H1975	0.34	0.306	0.305	0.271	0.881	0.8	0.659	0.611	0.411	0.407	0.389	0.388	0.395	0.162	0.216	0.249	0.187	0.204	0.335	0.537
NCI-H1355	1.17	1.04	0.954	1.03	0.995	0.734	0.62	0.733	0.35	0.421	0.32	0.339	0.373	0.771	0.823	0.737	0.673	0.758	0.789	0.619
H3255	0.584	0.76	0.711	0.421	0.762	0.948	0.826	0.656	0.736	–	0.559	0.508	0.535	0.745	1.07	0.793	0.777	0.747	0.416	0.469
